Source: ChEMBL document CHEMBL4364262 (J Med Chem, 2019)
Where a SMILES comes first, the peptide text is derived from it. Bridges are numbered along the chain shown (N, C = ends). [ ]: non-standard residue; d: D form. Nle(6-COOH) = N[C@@H](CCCCC(=O)O)C(=O)O; Nle = CCCC[C@H](N)C(=O)O

Experiments:
Format in all cases: cell-based
[1] = Antagonist activity at rat alpha6alpha3beta4 nAChR expressed in Xenopus laevis oocytes assessed as inhibition of Ach-induced response at -70 mV holding potential by two electrode voltage-clamp assay
[2] = target: T1, Neuronal acetylcholine receptor; alpha3/beta2 (Rattus norvegicus) (UniProt P04757+P12390); assay: Antagonist activity at rat alpha3beta2 nACHR expressed in Xenopus laevis oocytes assessed as Ach-induced current amplitude at 100 nM at -70 mV holding potential by two electrode voltage-clamp assay relative to control; set-up: scale not given: the % may be the effect or the level left
[3] = target: T1, Neuronal acetylcholine receptor; alpha3/beta2 (Rattus norvegicus); assay: Antagonist activity at rat alpha3beta2 nACHR expressed in Xenopus laevis oocytes assessed as Ach-induced current amplitude at 10 nM at -70 mV holding potential by two electrode voltage-clamp assay relative to control
[4] = target: nicotinic acetylcholine receptor alpha6/alpha3/beta2/beta3 (Rattus norvegicus, UniProt P04757+P12390+P12391+P43143); assay: Antagonist activity at rat alpha6alpha3beta2beta3 nAChR expressed in Xenopus laevis oocytes assessed as Ach-induced current amplitude at 10 nM at -70 mV holding potential by two electrode voltage-clamp assay relative to control
Sequence of nicotinic acetylcholine receptor alpha6/alpha3/beta2/beta3 (P04757 whole entry): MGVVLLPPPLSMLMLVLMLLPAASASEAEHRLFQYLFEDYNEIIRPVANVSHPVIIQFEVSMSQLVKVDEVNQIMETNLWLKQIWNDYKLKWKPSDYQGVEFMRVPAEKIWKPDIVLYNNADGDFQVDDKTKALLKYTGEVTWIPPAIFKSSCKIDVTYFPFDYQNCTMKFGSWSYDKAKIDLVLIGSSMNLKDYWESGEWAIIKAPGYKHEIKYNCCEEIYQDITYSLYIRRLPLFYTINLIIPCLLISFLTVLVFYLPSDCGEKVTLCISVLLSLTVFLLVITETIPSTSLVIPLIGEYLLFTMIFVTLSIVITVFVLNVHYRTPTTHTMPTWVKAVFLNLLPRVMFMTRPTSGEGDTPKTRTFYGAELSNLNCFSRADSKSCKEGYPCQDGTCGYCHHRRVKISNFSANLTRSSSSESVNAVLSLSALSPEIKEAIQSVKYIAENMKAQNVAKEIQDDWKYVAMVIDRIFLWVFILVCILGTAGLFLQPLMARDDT
Sequence of nicotinic acetylcholine receptor alpha6/alpha3/beta2/beta3 (P12390 whole entry): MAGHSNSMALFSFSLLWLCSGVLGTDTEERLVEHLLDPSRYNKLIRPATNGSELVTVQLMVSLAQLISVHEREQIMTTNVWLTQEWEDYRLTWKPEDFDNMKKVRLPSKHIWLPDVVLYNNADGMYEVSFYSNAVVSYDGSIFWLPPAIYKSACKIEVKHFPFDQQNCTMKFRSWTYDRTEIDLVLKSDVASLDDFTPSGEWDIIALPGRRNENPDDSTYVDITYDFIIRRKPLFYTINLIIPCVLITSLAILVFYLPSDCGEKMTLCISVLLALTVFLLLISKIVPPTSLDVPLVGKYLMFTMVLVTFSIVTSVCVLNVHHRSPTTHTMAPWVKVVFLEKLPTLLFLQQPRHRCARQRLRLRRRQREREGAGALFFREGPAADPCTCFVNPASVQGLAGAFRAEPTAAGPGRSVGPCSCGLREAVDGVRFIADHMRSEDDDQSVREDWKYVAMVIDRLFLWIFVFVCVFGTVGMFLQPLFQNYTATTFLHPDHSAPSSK
Sequence of nicotinic acetylcholine receptor alpha6/alpha3/beta2/beta3 (P12391 whole entry): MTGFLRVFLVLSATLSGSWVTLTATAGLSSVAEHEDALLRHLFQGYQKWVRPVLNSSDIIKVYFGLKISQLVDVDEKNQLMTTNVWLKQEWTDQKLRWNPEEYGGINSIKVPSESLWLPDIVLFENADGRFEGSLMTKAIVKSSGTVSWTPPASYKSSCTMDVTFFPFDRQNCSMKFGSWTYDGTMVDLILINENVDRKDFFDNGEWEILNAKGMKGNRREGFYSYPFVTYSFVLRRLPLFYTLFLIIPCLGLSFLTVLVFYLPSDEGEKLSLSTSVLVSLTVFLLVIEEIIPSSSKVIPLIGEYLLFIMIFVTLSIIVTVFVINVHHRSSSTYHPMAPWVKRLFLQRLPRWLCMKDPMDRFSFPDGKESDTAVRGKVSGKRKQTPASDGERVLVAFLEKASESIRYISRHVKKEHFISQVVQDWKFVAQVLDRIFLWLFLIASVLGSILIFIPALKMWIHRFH
Sequence of nicotinic acetylcholine receptor alpha6/alpha3/beta2/beta3 (P43143 whole entry): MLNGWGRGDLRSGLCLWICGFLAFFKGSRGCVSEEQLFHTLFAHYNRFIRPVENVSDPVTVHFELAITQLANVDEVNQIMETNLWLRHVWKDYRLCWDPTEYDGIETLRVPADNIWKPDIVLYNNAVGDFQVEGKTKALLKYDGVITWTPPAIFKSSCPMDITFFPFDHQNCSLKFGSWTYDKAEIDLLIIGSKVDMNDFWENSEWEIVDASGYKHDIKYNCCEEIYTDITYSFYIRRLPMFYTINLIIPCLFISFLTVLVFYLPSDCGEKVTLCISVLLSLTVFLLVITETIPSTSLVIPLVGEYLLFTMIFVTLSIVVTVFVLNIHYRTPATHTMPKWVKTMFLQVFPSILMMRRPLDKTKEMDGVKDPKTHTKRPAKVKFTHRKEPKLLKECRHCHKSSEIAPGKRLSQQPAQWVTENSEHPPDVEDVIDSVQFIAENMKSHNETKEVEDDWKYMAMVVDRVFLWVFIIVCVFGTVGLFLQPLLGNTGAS

| Structure (SMILES) | IC50 [1] [nM] | Activity [2] [%] | inhibition [3] [%] | inhibition at 0.01 µM [4] [%] |
| --- | --- | --- | --- | --- |
| CC[C@H](C)[C@@H]1NC(=O)[C@H](CCC(=O)O)NC(=O)[C@@H]2CCCN2C(=O)[C@H](Cc2cnc[nH]2)NC(=O)[C@H](CCCCC(=O)O)NC(=O)[C@H]([C@@H](C)CC)NC(=O)[C@H](Cc2cnc[nH]2)NC(=O)[C@@H]2CSSC[C@H](NC(=O)CN)C(=O)N[C@@H](CSSC[C@@H](C(N)=O)NC1=O)C(=O)N[C@@H](CO)C(=O)N[C@@H](Cc1cnc[nH]1)C(=O)N1CCC[C@H]1C(=O)N[C@@H](C)C(=O)N2 (H-GCCSHPACHI[Nle(6-COOH)]HPEIC-NH2; disulfide 2-8, 3-16) | 77.3 |  |  |  |
| CC[C@H](C)[C@@H]1NC(=O)[C@H](Cc2cnc[nH]2)NC(=O)[C@@H]2CSSC[C@H](NC(=O)CN)C(=O)N[C@@H](CSSC[C@@H](C(N)=O)NC(=O)[C@H](CC(C)C)NC(=O)[C@H](CCC(=O)O)NC(=O)[C@@H]3CCCN3C(=O)[C@H](Cc3cnc[nH]3)NC(=O)[C@H](CCCCC(=O)O)NC1=O)C(=O)N[C@@H](CO)C(=O)N[C@@H](Cc1cnc[nH]1)C(=O)N1CCC[C@H]1C(=O)N[C@@H](C)C(=O)N2 (H-GCCSHPACHI[Nle(6-COOH)]HPELC-NH2; disulfide 2-8, 3-16) | 43.1 |  |  |  |
| CCCC[C@@H]1NC(=O)[C@H](Cc2cnc[nH]2)NC(=O)[C@@H]2CSSC[C@H](NC(=O)CN)C(=O)N[C@@H](CSSC[C@@H](C(N)=O)NC(=O)[C@H]([C@@H](C)CC)NC(=O)[C@H](CCC(=O)O)NC(=O)[C@@H]3CCCN3C(=O)[C@H](Cc3cnc[nH]3)NC(=O)[C@H](CCCCC(=O)O)NC1=O)C(=O)N[C@@H](CO)C(=O)N[C@@H](Cc1cnc[nH]1)C(=O)N1CCC[C@H]1C(=O)N[C@@H](C)C(=O)N2 (H-GCCSHPACH[Nle][Nle(6-COOH)]HPEIC-NH2; disulfide 2-8, 3-16) | 205 | 2 | 8 | 90 |
| CCCC[C@@H]1NC(=O)[C@H](Cc2cnc[nH]2)NC(=O)[C@@H]2CSSC[C@H](NC(=O)CN)C(=O)N[C@@H](CSSC[C@@H](C(N)=O)NC(=O)[C@H](CC(C)C)NC(=O)[C@H](CCC(=O)O)NC(=O)[C@@H]3CCCN3C(=O)[C@H](Cc3cnc[nH]3)NC(=O)[C@H](CCCCC(=O)O)NC1=O)C(=O)N[C@@H](CO)C(=O)N[C@@H](Cc1cnc[nH]1)C(=O)N1CCC[C@H]1C(=O)N[C@@H](C)C(=O)N2 (H-GCCSHPACH[Nle][Nle(6-COOH)]HPELC-NH2; disulfide 2-8, 3-16) | 120 |  |  |  |
